{"source": "patent US20190083449A1", "about": "“COMBINATION THERAPY WITH AN ANTI-HYALURONAN AGENT AND THERAPEUTIC AGENT” (Halozyme, Inc., priority 2012, published 2019)", "key": {"cytidine deaminase": {"target": "T1, cytidine deaminase (Homo sapiens, UniProt P32320)", "T1 construct": "for the enzyme purified from human liver; from tissue; host or cells: human liver", "T1 sequence (P32320 whole entry)": "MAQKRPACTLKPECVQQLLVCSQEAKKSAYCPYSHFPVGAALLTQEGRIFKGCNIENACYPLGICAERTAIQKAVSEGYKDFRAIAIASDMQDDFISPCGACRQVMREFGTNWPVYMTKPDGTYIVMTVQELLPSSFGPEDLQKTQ", "details": "cited from earlier work; for Km: enzyme purified from human liver"}, "[1]": {"details": "route (IV or PO); cited from earlier work"}, "[2]": {"test_system": "BxPC3 pancreatic cancer cell line", "assay": "Tumor growth inhibition in BxPC3 xenograft model, PEGPH20, nab-paclitaxel and/or gemcitabine", "format": "in vivo, mouse", "protocol": "The human pancreatic cancer xenograft model described in Example 1 was used to evaluate the antitumor effects of PEGPH20 and nab-paclitaxel combination therapy in further combination with gemcitabine treatment. Prior to performing the study, a route and dose level for gemcitabine was selected based. […] The results are depicted in FIG. 2. […] Gemcitabine was administered intraperitoneally 24 hours after PEGPH20 and/or nab-paclitaxel every 7 days for three weeks of the dose cycle. […] The results are depicted in FIG. 3. […] Table 6 depicts the results as the percentage growth inhibition relative to vehicle as determined from tumor volume measurements at day 26."}, "[3]": {"test_system": "BxPC3 pancreatic cancer cell line", "assay": "Median survival time to endpoint in BxPC3 xenograft model", "format": "in vivo, mouse", "details": "three four-week dosing cycles; PEGPH20 4.5 mg/mL, nab-paclitaxel 10 mg/kg, gemcitabine 180 mg/kg; endpoint tumor >2000 mm^3, >20% bodyweight loss, duress or death", "protocol": "Following the first four week dosing cycle as set forth in part A, the dosing cycle was repeated two times and time to survival endpoint was followed over time. Briefly, in each dosing cycle, animals were treated with vehicle or PEGPH20 (4.5 mg/mL) with or without nab-paclitaxel (10 mg/kg) intravenously twice a week for four weeks. In each cycle, groups receiving gemcitabine were administered gemcitabine (180 mg/kg) 24 hours after PEGPH20 and/or nab-paclitaxel every 7 days for three weeks of the dose cycle. Time to survival endpoint, a surrogate of animal survival, was defined as (a) time to tumor volume of greater than 2000 mm^3, (b) time to a greater than 20% bodyweight loss, or (c) time to animal duress or death."}, "pancreatic cancer": {"test_system": "pancreatic cancer", "details": "cited from earlier work"}, "[4]": {"details": "rapid deamination by deoxycytidine deaminase to dFdU; cited from earlier work"}, "[5]": {"test_system": "carcinoembryonic antigen (CEA)", "assay": "Serum CEA tumor biomarker ELISA in BxPC3 xenograft model", "format": "in vivo, mouse", "details": "day 20 of first dosing cycle", "protocol": "(§1) Biomarkers carbohydrate antigen 19-9 (CA19-9) and carcinoembryonic antigen (CEA) associated with pancreatic cancer were tested to measure therapeutic response. Animals were treated as described in part A. Serum was collected from satellite animals (n≤3) from each group on day 0, 6, 13 and 20 of the first dosing cycle. Human CA19-9 was measured using a CA 19-9 ELISA kit (Catalog No. CA199T, Calbiotech, Spring Valley, Calif.) and CEA tumor antigen was measured using a CEA ELISA kit (Catalog No. CE062T, Calbiotech, Spring Valley, Calif.)."}, "[6]": {"test_system": "carbohydrate antigen 19-9 (CA19-9)", "assay": "Serum CA19-9 tumor biomarker ELISA in BxPC3 xenograft model", "format": "in vivo, mouse", "details": "day 20 of first dosing cycle", "protocol": "as §1"}, "B16 melanoma model": {"test_system": "B16 melanoma model", "details": "oral administration at 600 mg/kg/d; cited from earlier work"}}}
{"compound": "Nc1ncn([C@H]2C[C@H](O)[C@@H](CO)O2)c(=O)n1", "note": "[decitabine, 5-aza-2′-deoxycytidine]", "values": [{"measurement": "Km", "setting": "cytidine deaminase", "value": 250, "unit": "µM"}]}
{"compound": "C[C@]12C=CC(=O)C=C1CC[C@@H]1[C@@H]2[C@@H](O)C[C@@]2(C)[C@H]1CC[C@]2(O)C(=O)CO", "note": "[Prednisolone]", "values": [{"measurement": "Equivalent Potency", "setting": "[1]", "value": 5, "unit": "mg"}]}
{"compound": "C[C@]12CCC(=O)C=C1CC[C@@H]1[C@@H]2[C@@H](O)C[C@@]2(C)[C@H]1CC[C@]2(O)C(=O)CO", "note": "[Hydrocortisone]", "values": [{"measurement": "Equivalent Potency", "setting": "[1]", "value": 20, "unit": "mg"}]}
{"compound": "C[C@H]1C[C@@H]2[C@H]([C@@H](O)C[C@@]3(C)[C@H]2CC[C@]3(O)C(=O)COC(=O)CCC(=O)O)[C@@]2(C)C=CC(=O)C=C12", "note": "[Methylprednisolone sodium succinate]", "values": [{"measurement": "Equivalent Potency", "setting": "[1]", "value": 4, "unit": "mg"}]}
{"compound": "Nc1ccn([C@H]2C[C@H](O)[C@@H](CO)O2)c(=O)n1", "note": "[deoxycytidine]", "values": [{"measurement": "rate of deamination relative to decitabine", "setting": "cytidine deaminase; at equal concentrations", "value": "about 6 fold"}, {"measurement": "Km", "setting": "cytidine deaminase", "value": 12, "unit": "µM"}]}
{"compound": "Nc1ccn([C@@H]2O[C@H](CO)[C@@H](O)C2(F)F)c(=O)n1", "note": "[gemcitabine, 2′-deoxy-2′,2′-difluorocytidine]", "values": [{"measurement": "Tumor Growth Inhibition (% of vehicle control)", "setting": "[2]; day 26, PEGPH20 4.5 mg/kg i.v. 2x/wk, nab-paclitaxel 10 mg/kg i.v. 2x/wk, gemcitabine 180 mg/kg i.p. weekly", "value": 25, "unit": "%"}, {"measurement": "antitumor activity (in words)", "setting": "[2]; four week dose cycle, FIG. 3", "value": "some antitumor activity"}, {"measurement": "tumor growth compared to vehicle only (in words)", "setting": "[2]; gemcitabine 60, 120, 180 and 240 mg/kg once a week (day 0, 7, 14, 21)", "value": "inhibited tumor growth at all doses tested"}, {"measurement": "Median Survival Time", "setting": "[3]", "value": 38, "unit": "days"}, {"measurement": "survival compared to patients who had surgery alone", "setting": "pancreatic cancer; adjuvant setting", "value": "increased survival by two months"}, {"measurement": "median survival", "setting": "pancreatic cancer; gemcitabine monotherapy", "value": "over 5 months"}, {"measurement": "half-life in plasma", "setting": "[4]", "value": "approximately 10 minutes"}, {"measurement": "level of CEA marker in serum", "setting": "[5]", "value": "approximately 15 ng/mL"}, {"measurement": "level of CA19-9 marker in serum", "setting": "[6]", "value": "approximately similar to vehicle only control"}]}
{"compound": "Cc1cc(=O)oc2cc(O)ccc12", "note": "[4-MU, 7-hydroxy-4-methylcoumarin]", "values": [{"measurement": "reduction of metastases", "setting": "B16 melanoma model", "value": 64, "unit": "%"}]}
